How the values were obtained:
[1] = Dynamic vapor sorption (hygroscopicity) of the two crystal forms; type: physicochemical; details: for DVS weight gain: 0–90% RH; for Hygroscopicity (DVS): result in words
Description: Dynamic Vapor Sorption (Allentown, Pa.) was used to measure the hygroscopicity of the anhydrate and monohydrate of the invention (see FIGS. 6 and 7). The step conditions were three hours each at 0%, 30%, 52.5%, 75% and 90% RH, two full cycles.

[2] = Stability studies of the two crystal forms (XRPD, TGA, HPLC); type: physicochemical; details: for Chemical stability (HPLC) / Crystal form transformation (XRPD and TGA): 40° C./75% RH (monohydrate also 40° C. without humidity control)
Description: […] At room temperature, humidity was maintained at 0% RH. Humidity was not controlled for the higher temperatures.
The samples were analyzed by XRPD and TGA.
Non-micronized samples of monohydrate and anhydrate were stored at 40° C./75% RH for three months. The monohydrate was also stored at 40° C. without humidity control. During the three months, the samples were checked after two weeks, one month, two months, and three months.

DVS weight gain [1] | Hygroscopicity (DVS) [1] | Crystal form transformation (XRPD) ([2]; micronized, 25° C./60% RH, three months) | Crystal form transformation (XRPD) ([2]; micronized, 40° C./75% RH, one month) | Chemical stability (HPLC) ([2]; non-micronized, three months) | Crystal form transformation (XRPD and TGA) ([2]; non-micronized, three months) | Crystal form transformation (XRPD) ([2]; non-micronized, 40° C./75% RH, separate study) | Solid-state stability (XRPD and TGA) ([2]; 56° C., humidity not controlled, one week) | Solid-state stability (XRPD and TGA) ([2]; 70° C., humidity not controlled, 1 day) | Solid-state stability (XRPD and TGA) ([2]; 70° C., humidity not controlled, 4 days) | Solid-state stability (XRPD and TGA) ([2]; 70° C., humidity not controlled, 7 days) | Solid-state stability (XRPD) ([2]; 70° C., one hour) | Solid-state stability (XRPD) ([2]; 90° C., one half hour) | Solid-state stability (XRPD) ([2]; 90° C., one hour) | Solid-state stability (XRPD and TGA) ([2]; room temperature, 0% RH, one week) | SMILES
0.2% gain (0–90% RH) | largely non-hygroscopic | did not transform to the monohydrate | partially transform to the monohydrate | chemically stable | did not transform | did not show any obvious transformation |  |  |  |  |  |  |  |  | C=Cc1cc(O)cc2nc(-c3ccc(O)c(F)c3)oc12 [Anhydrate, 2-(3-fluoro-4-hydroxyphenyl)-7-vinyl-1,3-benzoxazol-5-ol]
0.1% gain (0–90% RH) | largely non-hygroscopic |  |  | chemically stable | did not transform |  | no obvious dehydration | no obvious hydration | partially dehydrated | mostly dehydrated | stable | partially dehydrated | completely dehydrated | no obvious dehydration | C=Cc1cc(O)cc2nc(-c3ccc(O)c(F)c3)oc12 [Monohydrate, 2-(3-fluoro-4-hydroxyphenyl)-7-vinyl-1,3-benzoxazol-5-ol]

From patent US20070208067A1, “Tablet Formulations and Processes” (Wyeth, priority 2006, published 2007)
